# From ChEMBL document CHEMBL1127579, “Novel, potent luteinizing hormone-releasing hormone antagonists with improved solubility in water” (1994)
# Columns and labels:
# Type in all cases: functional
# Rattus norvegicus [1] = species: Rattus norvegicus; test: Antiovulatory activity expressed as ratio of rats ovulated/total rats at a dose of 1.0 ug; 0/10
# Rattus norvegicus [2] = species: Rattus norvegicus; test: Antiovulatory activity expressed as ratio of rats ovulated/total rats at a dose of 0.5 microg; 9/25
# Rattus norvegicus [3] = species: Rattus norvegicus; test: Evaluated for histamine releasing activity
# Rattus norvegicus [4] = species: Rattus norvegicus; test: Antiovulatory activity expressed as ratio of rats ovulated/total rats at a dose of 0.5 microg; 5/8
# Rattus norvegicus [5] = species: Rattus norvegicus; test: Antiovulatory activity expressed as ratio of rats ovulated/total rats at a dose of 0.5 microg; 2/5
# Rattus norvegicus [6] = species: Rattus norvegicus; test: Antiovulatory activity expressed as ratio of rats ovulated/total rats at a dose of 0.25 microg; 6/10
# Rattus norvegicus [7] = species: Rattus norvegicus; test: Antiovulatory activity expressed as ratio of rats ovulated/total rats at a dose of 0.5 microg; 0/10
# Rattus norvegicus [8] = species: Rattus norvegicus; test: Antiovulatory activity expressed as ratio of rats ovulated/total rats at a dose of 0.5 microg; 6/7
# Rattus norvegicus [9] = species: Rattus norvegicus; test: Antiovulatory activity expressed as ratio of rats ovulated/total rats at a dose of 1.0 ug; 0/8
# Rattus norvegicus [10] = species: Rattus norvegicus; test: Antiovulatory activity expressed as ratio of rats ovulated/total rats at a dose of 0.5 microg; 3/8
# Rattus norvegicus [11] = species: Rattus norvegicus; test: Antiovulatory activity expressed as ratio of rats ovulated/total rats at a dose of 0.5 microg; 3/6
# Rattus norvegicus [12] = species: Rattus norvegicus; test: Antiovulatory activity expressed as ratio of rats ovulated/total rats at a dose of 0.5 microg; 4/5
# Rattus norvegicus [13] = species: Rattus norvegicus; test: Antiovulatory activity expressed as ratio of rats ovulated/total rats at a dose of 0.5 microg; 2/6
# Rattus norvegicus [14] = species: Rattus norvegicus; test: Antiovulatory activity expressed as ratio of rats ovulated/total rats at a dose of 0.25 microg; 2/12
# Rattus norvegicus [15] = species: Rattus norvegicus; test: Antiovulatory activity expressed as ratio of rats ovulated/total rats at a dose of 1.0 ug; 0/6
# Rattus norvegicus [16] = species: Rattus norvegicus; test: Antiovulatory activity expressed as ratio of rats ovulated/total rats at a dose of 0.25 microg; 3/7
# Rattus norvegicus [17] = species: Rattus norvegicus; test: Antiovulatory activity expressed as ratio of rats ovulated/total rats at a dose of 0.5 microg; 2/12
structure (smiles),measurement,setting,value
CC(=O)N[C@H](Cc1ccc2ccccc2c1)C(=O)N[C@H](Cc1ccc(Cl)cc1)C(=O)N[C@H](Cc1cccnc1)C(=O)N[C@@H](CO)C(=O)N[C@@H](CCCCNC(=O)c1cccnc1)C(=O)N[C@H](CCCCNC(=O)c1cccnc1)C(=O)N[C@@H](CC(C)C)C(=O)N[C@@H](CCCCN)C(=O)N1CCC[C@H]1C(=O)N[C@H](C)C(=O)O,Ratio,Rattus norvegicus [1],0
same,Ratio,Rattus norvegicus [2],9
same,ED50,Rattus norvegicus [3],> 300 µg/mL
CC(=O)N[C@H](Cc1ccc2ccccc2c1)C(=O)N[C@H](Cc1ccc(Cl)cc1)C(=O)N[C@H](Cc1cccnc1)C(=O)N[C@@H](CO)C(=O)N[C@@H](CCCCNC(=O)c1cccnc1)C(=O)N[C@H](CCCCNC(=O)c1ccccn1)C(=O)N[C@@H](CC(C)C)C(=O)N[C@@H](CCCCN)C(=O)N1CCC[C@H]1C(=O)N[C@H](C)C(=O)O,Ratio,Rattus norvegicus [4],5
same,ED50,Rattus norvegicus [3],60 µg/mL
CC(=O)N[C@H](Cc1ccc2ccccc2c1)C(=O)N[C@H](Cc1ccc(Cl)cc1)C(=O)N[C@H](Cc1cccnc1)C(=O)N[C@@H](CO)C(=O)N[C@@H](CCCCNC(=O)c1ccccn1)C(=O)N[C@H](CCCCNC(=O)c1cccnc1N)C(=O)N[C@@H](CC(C)C)C(=O)N[C@@H](CCCCNC(C)C)C(=O)N1CCC[C@H]1C(=O)N[C@H](C)C(=O)O,Ratio,Rattus norvegicus [5],2
CC(=O)N[C@H](Cc1ccc2ccccc2c1)C(=O)N[C@H](Cc1ccc(Cl)cc1)C(=O)N[C@H](Cc1cccnc1)C(=O)N[C@@H](CO)C(=O)N[C@@H](CCCCNC(=O)c1ccccn1)C(=O)N[C@H](CCCCNC(=O)c1ccccn1)C(=O)N[C@@H](CC(C)C)C(=O)N[C@@H](CCCCN)C(=O)N1CCC[C@H]1C(=O)N[C@H](C)C(=O)O,Ratio,Rattus norvegicus [6],6
same,ED50,Rattus norvegicus [3],93 µg/mL
same,Ratio,Rattus norvegicus [7],0
CC(=O)N[C@H](Cc1ccc2ccccc2c1)C(=O)N[C@H](Cc1ccc(Cl)cc1)C(=O)N[C@H](Cc1cccnc1)C(=O)N[C@@H](CO)C(=O)N[C@@H](CCCCNC(=O)c1nccnc1N)C(=O)N[C@H](CCCCNC(=O)c1nccnc1N)C(=O)N[C@@H](CC(C)C)C(=O)N[C@@H](CCCCNC(C)C)C(=O)N1CCC[C@H]1C(=O)N[C@H](C)C(=O)O,Ratio,Rattus norvegicus [8],6
CC(=O)N[C@H](Cc1ccc2ccccc2c1)C(=O)N[C@H](Cc1ccc(Cl)cc1)C(=O)N[C@H](Cc1cccnc1)C(=O)N[C@@H](CO)C(=O)N[C@@H](CCCCNC(=O)c1ccccn1)C(=O)N[C@H](CCCCNC(=O)c1cccnc1)C(=O)N[C@@H](CC(C)C)C(=O)N[C@@H](CCCCN)C(=O)N1CCC[C@H]1C(=O)N[C@H](C)C(=O)O,Ratio,Rattus norvegicus [9],0
same,Ratio,Rattus norvegicus [10],3
same,ED50,Rattus norvegicus [3],39 µg/mL
CC(=O)N[C@H](Cc1ccc2ccccc2c1)C(=O)N[C@H](Cc1ccc(Cl)cc1)C(=O)N[C@H](Cc1cccnc1)C(=O)N[C@@H](CO)C(=O)N[C@@H](CCCCNC(=O)c1cnccn1)C(=O)N[C@H](CCCCNC(=O)c1ccccn1)C(=O)N[C@@H](CC(C)C)C(=O)N[C@@H](CCCCN)C(=O)N1CCC[C@H]1C(=O)N[C@H](C)C(=O)O,Ratio,Rattus norvegicus [11],3
CC(=O)N[C@H](Cc1ccc2ccccc2c1)C(=O)N[C@H](Cc1ccc(Cl)cc1)C(=O)N[C@H](Cc1cccnc1)C(=O)N[C@@H](CO)C(=O)N[C@@H](CCCNC(=O)c1cnccn1)C(=O)N[C@H](CCCNC(=O)c1ccc(N)nc1)C(=O)N[C@@H](CC(C)C)C(=O)N[C@@H](CCCN=C(N)N)C(=O)N1CCC[C@H]1C(=O)N[C@H](C)C(=O)O,Ratio,Rattus norvegicus [12],4
CC(=O)N[C@H](Cc1ccc2ccccc2c1)C(=O)N[C@H](Cc1ccc(Cl)cc1)C(=O)N[C@H](Cc1cccnc1)C(=O)N[C@@H](CO)C(=O)N[C@@H](CCCCNC(=O)c1ccccn1)C(=O)N[C@H](CCCCNC(=O)c1ccc(N)nc1)C(=O)N[C@@H](CC(C)C)C(=O)N[C@@H](CCCN=C(N)N)C(=O)N1CCC[C@H]1C(=O)N[C@H](C)C(=O)O,Ratio,Rattus norvegicus [13],2
same,Ratio,Rattus norvegicus [14],2
same,ED50,Rattus norvegicus [3],8 µg/mL
same,Ratio,Rattus norvegicus [15],0
CC(=O)N[C@H](Cc1ccc2ccccc2c1)C(=O)N[C@H](Cc1ccc(Cl)cc1)C(=O)N[C@H](Cc1cccnc1)C(=O)N[C@@H](CO)C(=O)N[C@@H](CCCCNC(=O)c1ccccn1)C(=O)N[C@H](CCCCNC(=O)c1ccc(N)nc1)C(=O)N[C@@H](CC(C)C)C(=O)N[C@@H](CCCCNC(C)C)C(=O)N1CCC[C@H]1C(=O)N[C@H](C)C(=O)O,Ratio,Rattus norvegicus [16],3
same,ED50,Rattus norvegicus [3],96 µg/mL
same,Ratio,Rattus norvegicus [17],2
same,Ratio,Rattus norvegicus [15],0
